Assay results as given in patent US11111243B2, “Azaindole compounds as histone methyltransferase inhibitors” (GLOBAL BLOOD THERAPEUTICS, INC., priority 2017, dated 2021).
Where a name gives a salt, the structure may show the parent alone.

Target: T1, G9a (Homo sapiens, UniProt Q96KQ7)
T1 sequence (Q96KQ7 1-1210): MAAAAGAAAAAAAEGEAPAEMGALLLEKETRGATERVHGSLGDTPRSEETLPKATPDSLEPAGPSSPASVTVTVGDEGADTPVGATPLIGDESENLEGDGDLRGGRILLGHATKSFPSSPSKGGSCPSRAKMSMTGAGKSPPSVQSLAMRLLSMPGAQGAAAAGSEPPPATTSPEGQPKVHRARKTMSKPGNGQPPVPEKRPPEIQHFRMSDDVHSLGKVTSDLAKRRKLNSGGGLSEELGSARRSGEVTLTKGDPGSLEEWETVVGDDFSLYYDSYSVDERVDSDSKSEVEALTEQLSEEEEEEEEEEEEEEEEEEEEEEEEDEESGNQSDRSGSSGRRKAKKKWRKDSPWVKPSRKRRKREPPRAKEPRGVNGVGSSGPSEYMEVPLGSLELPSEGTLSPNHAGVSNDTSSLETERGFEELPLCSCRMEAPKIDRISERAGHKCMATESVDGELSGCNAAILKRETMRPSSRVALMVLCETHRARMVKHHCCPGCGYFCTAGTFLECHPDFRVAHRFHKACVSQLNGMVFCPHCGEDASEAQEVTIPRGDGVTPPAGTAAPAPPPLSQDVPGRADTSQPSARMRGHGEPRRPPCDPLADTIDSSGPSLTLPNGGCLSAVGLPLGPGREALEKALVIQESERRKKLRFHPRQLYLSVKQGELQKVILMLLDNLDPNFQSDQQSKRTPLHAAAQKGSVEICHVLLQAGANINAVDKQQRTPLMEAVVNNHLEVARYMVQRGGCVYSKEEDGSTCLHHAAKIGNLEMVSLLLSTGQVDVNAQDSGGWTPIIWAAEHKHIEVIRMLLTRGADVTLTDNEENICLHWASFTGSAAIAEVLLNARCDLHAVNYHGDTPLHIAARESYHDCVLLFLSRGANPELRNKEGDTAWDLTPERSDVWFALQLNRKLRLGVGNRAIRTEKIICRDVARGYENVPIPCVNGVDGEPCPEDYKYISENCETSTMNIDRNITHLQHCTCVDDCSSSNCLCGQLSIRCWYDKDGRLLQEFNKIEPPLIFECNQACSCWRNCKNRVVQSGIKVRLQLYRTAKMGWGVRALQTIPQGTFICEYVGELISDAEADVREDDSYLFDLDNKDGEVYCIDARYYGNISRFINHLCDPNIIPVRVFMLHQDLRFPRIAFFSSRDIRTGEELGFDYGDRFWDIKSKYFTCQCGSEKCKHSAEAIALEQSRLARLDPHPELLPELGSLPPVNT
Test: G9a AlphaLISA enzymatic activity assay
Assay type: biochemical
Settings: 0.15 nM G9a, 10 uM S-adenosyl-methionine, 100 nM biotinylated histone 3 peptide (1-21), 1 h room temperature
From the text: The G9a AlphaLISA assay was used to detect the methyl modifications of a biotinylated histone H3 peptide by the compounds. These modifications are done by the histone methyl transferase activity of the G9a enzyme. The assay consists of reading a chemiluminescent signal at 615 nm; this signal is generated by a laser excitation at 680 nm that transfers a reactive singlet oxygen between the donor beads and acceptor beads. Donor beads are streptavidin conjugated and bind to the biotin on the peptide. Acceptor beads are conjugated with an antibody that recognizes the specific G9a methyl mark on the peptide. If there is a methyl mark on the peptide, the acceptor beads will bind to the peptide. Upon binding, the acceptor beads will be in close proximity (<200 nm) of the donor beads and when the donor beads are excited, the transfer of the oxygen can occur and a strong signal will be generated. If there is no methyl mark, the interaction between beads will not occur and signal will be at background levels.
For the assay, the following buffer was used to set up reactions: 50 mM Tris-HCl pH9, 50 mM NaCl, 0.01% Tween-20 and 1 mM DTT (added fresh prior to starting the reactions). The assay is set up by adding a final concentration of 0.15 nM G9a, 10 uM S-adenosyl-methionine and, 100 nM biotinylated histone 3 peptide (1-21). The reaction is incubated at room temperature for 1 h, and subsequently quenched by the addition of the acceptor beads (anti-H3k9me2 AlphaLISA acceptor beads, PerkinElmer #AL117) at a final concentration of 20 ug/mL. The acceptor beads are incubated for 1 h. After 1 h, the donor beads are added at a final concentration of 20 ug/mL (Alpha Streptavidin donor beads, PerkinElmer #6760002). Donor beads are incubated for 0.5 h. Both donor and acceptor beads are resuspended in AlphaLISA 5× Epigenetics Buffer 1 Kit (PerkinElmer #AL008) prior to addition to the reaction. All manipulations and incubations with the donor and acceptor beads are done in subdued light. Signal is detected in an EnVision plate reader in Alpha mode (See ACS Med Chem Lett. 2014 Jan. 2; 5(2):205-9)
Percent inhibition was calculated for each compound dilution and the concentration that produced 50% inhibition was calculated. This value is presented as the IC50.

| SMILES | IC50 [µM] |
| --- | --- |
| COc1cc2c(cc1OCCCN1CCCC1)[nH]c1nc(N)ccc12 [Compound 33, 6-methoxy-7-[3-(pyrrolidin-1-yl)propoxy]-9H-pyrido[2,3-b]indol-2-amine hydrochloride] | 0.32 |
| COc1cc2c(cc1OCCCN1CCCC1)[nH]c1ccncc12 [Compound 31, 1-[3-({8-methoxy-5H-pyrido[4,3-b]indol-7-yl}oxy)propyl]pyrrolidine hydrochloride] | 0.0036 |
| COc1cc2c(cc1OCCCN1CCCC1)[nH]c1ccnc(C3CC3)c12 [Compound 43, 1-[3-({1-cyclopropyl-8-methoxy-5H-pyrido[4,3-b]indol-7-yl}oxy)propyl]pyrrolidine] | 0.0013 |
| COc1cc2c(cc1OCCCN1CCCC1)[nH]c1ccnc(C)c12 [Compound 29, 1-[3-({8-methoxy-1-methyl-5H-pyrido[4,3-b]indol-7-yl}oxy)propyl]pyrrolidine hydrochloride] | 0.0012 |
| COc1cc2c(cc1OCCCN1CC[C@H](F)C1)[nH]c1ccnc(C3CC3)c12 [Compound 63, (3S)-1-[3-({1-cyclopropyl-8-methoxy-5H-pyrido[4,3-b]indol-7-yl}oxy)propyl]-3-fluoropyrrolidine hydrochloride] | 0.13 |
| COc1c(OCCCN2CCCC2)ccc2c1[nH]c1cccnc12 [Compound 26, 1-[3-({6-methoxy-5H-pyrido[3,2-b]indol-7-yl}oxy)propyl]pyrrolidine hydrochloride] | 0.25 |
| COc1cc2c(cc1OCCCN1CCCC1)[nH]c1ccnc(N3CCCC3)c12 [Compound 39, 1-{8-methoxy-7-[3-(pyrrolidin-1-yl)propoxy]-5H-pyrido[4,3-b]indol-1-yl}pyrrolidine] | 0.0057 |
| COc1cc2c(cc1OCCCN1CCCC1)[nH]c1cnccc12 [Compound 28, 1-[3-({6-methoxy-9H-pyrido[3,4-b]indol-7-yl}oxy)propyl]pyrrolidine hydrochloride] | 0.06 |
| COc1cc2c(cc1OCCCN(C)C)[nH]c1ccnc(C3CCOCC3)c12 [Compound 68, (3-{[8-methoxy-1-(oxan-4-yl)-5H-pyrido[4,3-b]indol-7-yl]oxy}propyl)dimethylamine hydrochloride] | 0.026 |
| COc1cc2c(cc1OCCCN(C)C)[nH]c1ccnc(C#CC(C)O)c12 (stereo not drawn) [Compound 50, 4-{7-[3-(dimethylamino)propoxy]-8-methoxy-5H-pyrido[4,3-b]indol-1-yl}but-3-yn-2-ol hydrochloride] | 0.69 |
| COc1cc2c(cc1OCCCN(C)C)[nH]c1ccnc(C#CC(C)(C)O)c12 [Compound 48, 4-{7-[3-(dimethylamino)propoxy]-8-methoxy-5H-pyrido[4,3-b]indol-1-yl}-2-methylbut-3-yn-2-ol hydrochloride] | 1.3 |
| CCN(C)CCCOc1cc2[nH]c3ccnc(C4CC4)c3c2cc1OC [Compound 46, [3-({1-cyclopropyl-8-methoxy-5H-pyrido[4,3-b]indol-7-yl}oxy)propyl](ethyl)methylamine hydrochloride] | 0.024 |
| COc1cc2c(cc1OCCCN1CCCC1)[nH]c1ccnc(C3=CCOCC3)c12 [Compound 64, 1-(3-{[1-(3,6-dihydro-2H-pyran-4-yl)-8-methoxy-5H-pyrido[4,3-b]indol-7-yl]oxy}propyl)pyrrolidine hydrochloride] | 0.012 |
| COc1cc2c(cc1OCCCN1CCCC1)[nH]c1ccnc(N3CC[C@H](O)C3)c12 [Compound 11, (3S)-1-{8-methoxy-7-[3-(pyrrolidin-1-yl)propoxy]-5H-pyrido[4,3-b]indol-1-yl}pyrrolidin-3-ol] | 0.0082 |
| CCN(C)CCCOc1cc2[nH]c3ccncc3c2cc1OC [Compound 45, ethyl[3-({8-methoxy-5H-pyrido[4,3-b]indol-7-yl}oxy)propyl]methylamine hydrochloride] | 0.056 |

Further lines, results first:

| IC50 [µM] | SMILES |
| --- | --- |
| 0.26 | COc1cc2c(cc1OCCCN1CCCC1)[nH]c1ccnc(-c3cncs3)c12 [Compound 78, 5-{8-methoxy-7-[3-(pyrrolidin-1-yl)propoxy]-5H-pyrido[4,3-b]indol-1-yl}-1,3-thiazole trifluoroacetate] |
| 0.14 | COc1cc2c(cc1OCCCN1CCCC1)[nH]c1cc(CO)ncc12 [Compound 79, {8-methoxy-7-[3-(pyrrolidin-1-yl)propoxy]-5H-pyrido[4,3-b]indol-3-yl}methanol trifluoroacetate] |
| 0.96 | COc1cc2c(cc1OCCCN1CCCC1)[nH]c1ccnc(-n3ccnc3)c12 [Compound 76, 1-{8-methoxy-7-[3-(pyrrolidin-1-yl)propoxy]-5H-pyrido[4,3-b]indol-1-yl}-1H-imidazole trifluoroacetate] |
| 3.3 | COCCOc1nccc2[nH]c3cc(OCCCN4CCCC4)c(OC)cc3c12 [Compound 96, 1-(3-{[8-methoxy-1-(2-methoxyethoxy)-5H-pyrido[4,3-b]indol-7-yl]oxy}propyl)pyrrolidine trifluoroacetate] |
| 0.0071 | COc1cc2c(cc1OCCCN(C)C)[nH]c1ccnc(C)c12 [Compound 90, [3-({8-methoxy-1-methyl-5H-pyrido[4,3-b]indol-7-yl}oxy)propyl]dimethylamine hydrochloride] |
| 0.068 | COc1cc2c(cc1OCCCN1CCCC1)[nH]c1ccnc(O)c12 [Compound 97, 8-methoxy-7-(3-(pyrrolidin-1-yl)propoxy)-5H-pyrido[4,3-b]indol-1-ol trifluoroacetate] |
| 0.052 | COc1cc2c(cc1OCCN1CCCC1)[nH]c1ccncc12 [Compound 71, 1-[2-({8-methoxy-5H-pyrido[4,3-b]indol-7-yl}oxy)ethyl]pyrrolidine hydrochloride] |
| 0.24 | COc1cc2c(cc1OCC1CCCNC1)[nH]c1ccncc12 (stereo not drawn) [Compound 87, 3-[({8-methoxy-5H-pyrido[4,3-b]indol-7-yl}oxy)methyl]piperidine hydrochloride] |
| 0.0067 | COc1cc2c(cc1OCCCN1CCCC1)[nH]c1ccnc(OC3CCNC3)c12 (stereo not drawn) [Compound 74, 3-({8-methoxy-7-[3-(pyrrolidin-1-yl)propoxy]-5H-pyrido[4,3-b]indol-1-yl}oxy)pyrrolidine bis(2,2,2-trifluoroacetate)] |
| 0.017 | CCN(CC)c1nccc2[nH]c3cc(OCCCN4CCCC4)c(OC)cc3c12 [Compound 85, N,N-diethyl-8-methoxy-7-[3-(pyrrolidin-1-yl)propoxy]-5H-pyrido[4,3-b]indol-1-amine bis formate] |
| 0.012 | COc1cc2c(cc1OCCCN(C)C)[nH]c1ccncc12 [Compound 88, [3-({8-methoxy-5H-pyrido[4,3-b]indol-7-yl}oxy)propyl]dimethylamine hydrochloride] |
| 2.8 | COc1cc2c(cc1OCCCN1CC3CC(C3)C1)[nH]c1ccncc12 [Compound 98, 3-[3-({8-methoxy-5H-pyrido[4,3-b]indol-7-yl}oxy)propyl]-3-azabicyclo[3.1.1]heptane hydrochloride] |
